According to publication PMC11952234, “Functional profiling of synthetic camel milk-derived peptides with implication in glucose transport and diabetes” (PLOS One, 2025):
Several values for one entry are separate records, joined by “and”; a condition that tells them apart may be missing. Equal values may be shown once. Read-outs that look alike come from different tables or passages of the source. Marks after values point to notes of the source that are not given here. Residues, ends and D or L forms follow the SMILES beside them.

What was measured:
HepG2 cells = test: Glucose uptake assay (Glucose Uptake-Glo) in HepG2 cells; format: cell-based, human; settings: 1 hour, 37°C; for glucose uptake, specific luminescence signal, Average: Average of Experiments 1-5, HepG2, 0.1 mg/ml peptide or 1 μM insulin, minimal data set for Figure 5; for % of glucose uptake: HepG2 cells, 0.1 mg/ml peptide or 1 μM insulin, % of insulin's response taken as 100%, mean ± SD of five independent experiments in triplicate
Description: Glucose uptake in HepG2 cells was carried out using Glucose Uptake-Glo Assay (Promega). For this, cells seeded in a 96-well white plate (50,000 cells/well) were first washed with PBS and starved in phenol red-, glucose-, and serum-free medium (Dulbecco’s modified Eagle’s medium containing 0.01 mM HEPES, 0.3 mg/ml glutamine, 100 IU/ml penicillin, and 100 µg/ml streptomycin). […] The treatment was removed, and the cells were washed once with PBS and then incubated with 50 μL/well of freshly prepared 2-deoxyglucose (500 μM) for 10 minutes at room temperature. The uptake process was stopped and neutralized, followed by the addition of 50 μl/well of 2-deoxyglucose-6-phosphate (2DG6P) detection reagent and incubation for 15-60 minutes at room temperature. The glucose-6-phosphate dehydrogenase (G6PDH) oxidizes 2DG6P to 6-phosphodeoxygluconate (6PDG) and reduces NADP + to NADPH. The reductase uses NADPH to convert the proluciferin to luciferin, which is then used by Ultra-Glo™ recombinant luciferase to produce luminescence. This luminescence, proportional to the amount of 2-deoxyglucose transported inside the cells upon treatment, was then measured using a 0.3–1 second integration on GloMax® Discover luminometer according to Glucose Uptake-Glo™ protocol.

[1] = target: T1, insulin receptor (IR); interaction of IR-Rluc with IRS1-YFP in HEK293 cells (Homo sapiens, UniProt P06213); test: BRET assay of IR activation (IR-Rluc/IRS1-YFP), single treatment, dose-response; format: cell-based; settings: HEK293, 1 hour, 37°C, minimal data set for Figure 1, average
T1 construct: expressed in transfected cells; host or cells: HEK293 cells, transient co-transfection; plasmids provided by Dr. Tarik Issad (Cochin Institute, Paris)
T1 sequence (P06213 28-758 limits assumed): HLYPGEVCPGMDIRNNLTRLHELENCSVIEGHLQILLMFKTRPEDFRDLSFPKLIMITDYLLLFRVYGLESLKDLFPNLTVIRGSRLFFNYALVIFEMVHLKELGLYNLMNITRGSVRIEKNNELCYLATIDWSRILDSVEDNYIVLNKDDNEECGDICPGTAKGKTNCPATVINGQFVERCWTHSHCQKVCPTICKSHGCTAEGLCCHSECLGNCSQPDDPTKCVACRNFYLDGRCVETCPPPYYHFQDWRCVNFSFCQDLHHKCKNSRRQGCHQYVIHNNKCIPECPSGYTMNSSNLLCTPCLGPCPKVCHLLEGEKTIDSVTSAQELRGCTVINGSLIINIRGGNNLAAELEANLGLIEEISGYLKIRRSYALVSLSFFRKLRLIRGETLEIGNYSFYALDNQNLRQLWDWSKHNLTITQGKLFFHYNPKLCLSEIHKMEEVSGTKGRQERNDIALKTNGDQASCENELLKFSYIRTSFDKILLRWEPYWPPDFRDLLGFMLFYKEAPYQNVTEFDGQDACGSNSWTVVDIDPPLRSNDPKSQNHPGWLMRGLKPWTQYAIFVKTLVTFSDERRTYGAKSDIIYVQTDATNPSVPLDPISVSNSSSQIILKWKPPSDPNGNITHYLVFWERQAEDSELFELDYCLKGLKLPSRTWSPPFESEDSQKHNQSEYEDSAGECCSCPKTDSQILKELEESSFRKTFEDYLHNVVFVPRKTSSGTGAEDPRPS
T1 sequence (P06213 763-1382 limits assumed): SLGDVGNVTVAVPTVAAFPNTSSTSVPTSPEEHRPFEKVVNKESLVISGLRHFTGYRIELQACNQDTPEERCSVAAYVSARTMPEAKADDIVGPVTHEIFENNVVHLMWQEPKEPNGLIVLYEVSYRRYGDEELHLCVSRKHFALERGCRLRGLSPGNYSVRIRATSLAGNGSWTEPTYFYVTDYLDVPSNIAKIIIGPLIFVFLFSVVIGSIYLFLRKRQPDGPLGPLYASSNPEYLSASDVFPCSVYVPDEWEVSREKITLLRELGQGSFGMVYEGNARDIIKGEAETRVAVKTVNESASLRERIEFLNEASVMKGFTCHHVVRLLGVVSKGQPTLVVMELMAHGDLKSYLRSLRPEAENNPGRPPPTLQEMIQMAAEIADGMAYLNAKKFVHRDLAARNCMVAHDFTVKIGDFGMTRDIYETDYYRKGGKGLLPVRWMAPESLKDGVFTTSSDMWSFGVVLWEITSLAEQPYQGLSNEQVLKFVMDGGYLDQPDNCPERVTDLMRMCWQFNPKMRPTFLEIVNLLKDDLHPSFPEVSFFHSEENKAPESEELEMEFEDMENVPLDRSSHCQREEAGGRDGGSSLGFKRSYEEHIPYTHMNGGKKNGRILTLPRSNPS
Description: (§1) HepG2 and HEK293 cells were maintained at 37°C, 5% CO2 in complete RPMI and Dulbecco’s modified Eagle’s medium (DMEM), respectively, containing 0.3 mg/ml glutamine, 100 IU/ml penicillin, and 100 µg/ml streptomycin) supplemented with 10% fetal calf serum (Gibco, Carlsbad, CA, USA). The transient transfection in HEK293 cells was carried out in 75 cm flask containing 10^7 cells using Lipofectamine 2000 and 5 µg of IR-Rluc and 5 µg of IRS1-YFP (for BRET and phosphorylation experiments) as previously described. All assays were performed 48 hours post-transfection.
(§2) BRET technology was used for IR activation and its interaction with IRS1 as previously described. […] Following treatments, 10 μl of Coelenterazine h was added to a final concentration of 5 µ M and BRET measurements were carried out using the Tristar 2 multi-label plate reader (Berthold, Germany), allowing luminescence recording and signal integration at 480 nm and 540 nm.
(§3) Statistical analyses were performed statistical significance between the different treatments and conditions as indicated in the figures and tables and their captions. […] The significance is indicated in the figures by stars (****p-value < 0.0001, ***p-value < 0.001, ** p-value < 0.01, * p-value < 0.05), and the absence of stars means non-significant (p-value > 0.05). However, the two-way ANOVA was used for multiple comparisons to determine the statistical significance between the different peptides when compared to each other in the different assays as described in the tables.

[2] = system: insulin receptor (IR); insulin-induced IR-Rluc/IRS1-YFP BRET in HEK293 cells; test: BRET assay of IR activation, peptides combined with insulin; format: cell-based, human; settings: for insulin-induced BRET, % of insulin's response in the vehicle, Average: Average of Experiments 1-7; for insulin-induced BRET, % of insulin's response in the vehicle, Average / insulin-induced BRET, % of insulin's response in the vehicle / % of maximal BRET (insulin-induced): 1 μM insulin + 0.1 mg/ml peptide; for insulin-induced BRET, % of insulin's response in the vehicle, Average / insulin-induced BRET, % of insulin's response in the vehicle: HEK293, minimal data set for Figure 2; for % of maximal BRET (insulin-induced): 1 hour, 37°C, % of insulin's response in the vehicle taken as 100%, mean ± SD of five to seven independent experiments in triplicate; for profile on insulin-dependent BRET response in combined treatment (in words): compared to insulin alone (Vehicle)
Description: as §1, §2
as §3, with “For BRET, the data were normalized by taking as 100% of the maximal insulin-induced BRET signal in the vehicle and analyzed using GraphPad Prism software (San Diego, CA, USA). Statistical” for “Statistical”, “tables. In this case, the different letters indicate statistically significant effects (p-value < 0.05), while the same letters indicate no significant difference between the different treatments compared to each other.” for “tables.”

[3] = system: AKT phosphorylation (pAKT-S473) in HepG2 cells; test: AKT phosphorylation by western blot in HepG2 cells; format: cell-based, human; settings: 1 μM insulin + 0.1 mg/ml peptide, 10 minutes, 37°C
Description: (§4) Following treatment, cells were then lysed with RIPA lysis buffer and thereafter centrifuged at 12000 × g for 30 minutes. Thereafter, the extracted cell lysate proteins were quantified using the bicinchoninic acid (BCA) protein assay. To examine the phosphorylation status of IR and AKT, 30-40 μg of proteins were loaded on 10% SDS-PAGE gel followed by western blot using the following antibodies: the mouse monoclonal anti-phospho-IR (pIR-Tyr1334)(1:1000 dilution) and the mouse monoclonal anti-phospho-AKT (pAKT-S473)(1:2000 dilution) as previously described. The corresponding total proteins loaded were also analyzed in parallel using the specific antibodies against the native forms of the different proteins. Densitometry analysis of the different western blots was performed using Image Studio Version 5.2 software from LICOR (Lincoln, Nebraska, USA).

[4] = system: IR phosphorylation (pIR-Tyr1334) in HepG2 cells; test: IR phosphorylation by western blot in HepG2 cells; format: cell-based, human; settings: 1 μM insulin + 0.1 mg/ml peptide, 10 minutes, 37°C
Description: as §4

[5] = HEK293, read-out: BRET, % of the maximal response of insulin, Average, peptide 0.001 mg/ml
[6] = HEK293, read-out: BRET, % of the maximal response of insulin, Average, peptide 0.005 mg/ml
[7] = HEK293, read-out: BRET, % of the maximal response of insulin, Average, peptide 0.01 mg/ml
[8] = HEK293, read-out: BRET, % of the maximal response of insulin, Average, peptide 0.05 mg/ml
[9] = HEK293, read-out: BRET, % of the maximal response of insulin, Average, peptide 0.1 mg/ml
[10] = HEK293, read-out: BRET, % of the maximal response of insulin, Average, peptide 0.5 mg/ml
[11] = HEK293, read-out: BRET, % of the maximal response of insulin, Average, peptide 1 mg/ml
[12] = HEK293 cells, 0.1 mg/ml peptide + 1 μM insulin

Emax [1, 5] | Emax [1, 6] | Emax [1, 7] | Emax [1, 8] | Emax [1, 9] | Emax [1, 10] | Emax [1, 11] | SMILES | glucose uptake, specific luminescence signal, Average (HepG2 cells) | insulin-induced BRET, % of insulin's response in the vehicle, Average [2] | insulin-induced BRET, % of insulin's response in the vehicle ([2]; Experiment 2) | insulin-induced BRET, % of insulin's response in the vehicle ([2]; Experiment 3) | insulin-induced BRET, % of insulin's response in the vehicle ([2]; Experiment 4) | insulin-induced BRET, % of insulin's response in the vehicle ([2]; Experiment 6) | insulin-induced BRET, % of insulin's response in the vehicle ([2]; Experiment 7) | % of maximal BRET (insulin-induced) ([2]; HEK293 cells) | profile on insulin-dependent BRET response in combined treatment (in words) [2, 12] | insulin-induced AKT phosphorylation, combined treatment (in words) [3] | % of glucose uptake (HepG2 cells) | insulin-induced BRET, % of insulin's response in the vehicle ([2]; Experiment 1) | other results
7.4% | 26.1% | 31.2% | 44.3% | 40.4% | 50.8% | 41.1% | CC(C)[C@H](N)C(=O)N1CCC[C@H]1C(=O)N[C@@H](Cc1ccccc1)C(=O)O [Peptide P7, VPF] (H-Val-Pro-Phe-OH; N-terminus and C-terminus assumed) | 2605600 | 146.7 | 149.4 | 179.1 | 160.6 | 120.3 | 124.3 | 147 ± 11^d % | potentiating | slightly potentiated |  |  | 
6.9% | 19.9% | 32.1% | 47.3% | 59.2% | 68.7% | 58.9% | CSCC[C@H](NC(=O)[C@H](Cc1c[nH]cn1)NC(=O)[C@H](CS)NC(=O)[C@@H]1CCCN1C(=O)[C@H](CC(C)C)NC(=O)[C@@H]1CCCN1C(=O)[C@@H]1CCCN1C(=O)[C@H](CC(C)C)NC(=O)[C@H](CS)NC(=O)[C@H](CS)NC(=O)[C@H](C)NC(=O)[C@@H](NC(=O)[C@H](C)NC(=O)[C@@H]1CCCN1)C(C)C)C(=O)O [Peptide P2] (H-PAVACCLPPLPCHM-OH; N-terminus and C-terminus assumed) | 1417300 | 52.0 | 33.7 | 14.3 | 58.1 | 70.5 | 56.8 | 52 ± 8% and 52 ± 8^b % | antagonistic |  | 56 ± 9^b % | 76.0 | insulin-induced IR phosphorylation, combined treatment (in words) [4]: no inhibitory action; insulin-induced BRET, % of insulin's response in the vehicle ([2]; Experiment 5): 54.3; decrease of the insulin-dependent BRET response [2, 12]: ~ 50%
18.3% | 25.4% | 35% | 44.5% | 45.6% | 47.9% | 40.4% | CC(C)C[C@H](N)C(=O)N1CCC[C@H]1C(=O)N[C@H](C(=O)N1CCC[C@H]1C(=O)O)C(C)C [Peptide P6, LPVP] (H-LPVP-OH; N-terminus and C-terminus assumed) | 3425500 | 140.3 | 195.4 | 142.3 | 129.2 | 119.3 |  | 135 ± 13^d % | potentiating | slightly potentiated | 135 – 150% and 136 ± 16^d % | 115.3 | 
